Among the data in patent US10287276B2, “Heteroaryl-1,2,4-triazole and heteroaryl-tetrazole compounds for controlling ectoparasites” (Elanco Tiergesundheit AG, priority 2016, dated 2019) are pest or weed control and inhibition in vivo values, retold here.

For test [1], the system named is Rhipicephalus sanguineus (Dog Tick). The test is described as follows: Activity in vitro against Rhipicephalus sanguineus (dog tick), Assay B, coated glass vials. The conditions noted are these: Rhipicephalus sanguineus; at 20 ppm; contact with coated vials, assessment at 48 hours; read-out: efficacy (EC50). How it is done:
Activity In Vitro Against Rhipicephalus sanguineus (Dog Tick)—Assay B
A solution of the test compounds is used to coat the inner wall of glass vials containing a filter paper on the bottom of each vial. A second filter paper is also coated and placed in the cap of the vial. Vials and caps are allowed to dry overnight. Each treated vial is infested with ticks. Contact of the ticks with residues is induced by holding the vials in a controlled environment and assessment is performed at 48 hours after application in comparison with untreated glass vials and solvent-treated glass vials.

Test [2] has as its system Ctenocephalides Felis (Cat Flea). Description: Activity in vitro against Ctenocephalides felis (cat flea), Assay B. The note with it: Ctenocephalides felis; at 10 ppm in bovine blood; % mortality at 48 hours post infestation; read-out: efficacy (EC50). How it is done:
Activity In Vitro Against Ctenocephalides Felis (Cat Flea)—Assay B
Test compounds are added to organic bovine blood contained in an artificial feeding container. Compounds with known insecticidal activity are included to serve as positive controls. Newly emerged unfed adult fleas from a laboratory colony are aspirated into each vial. The test cages are maintained using the artificial feeding apparatus to allow ingestion of compound. Fleas are evaluated for % mortality at 48 hours post infestation. Fleas showing normal movement and/or jumping ability are considered viable and those showing no movement are scored as dead.

Test [3] deals with Lucilla Cuprina (Australian Sheep Blowfly). The test is described as follows: Activity in vitro against Lucilla cuprina (Australian sheep blowfly), Assay B. The note with it: Lucilia cuprina; at 10 ppm; larvae, compound in bovine serum, percent mortality at 24 hours; read-out: efficacy (EC50). The arrangement: species or system L. cuprina. How it is done: Activity In Vitro Against Lucilla Cuprina (Australian Sheep Blowfly)—Assay B
Compound formulated in bovine serum is dispensed into scintillation. A dental cotton roll is added to each vial to absorb the compound solution. L. cuprina larvae are added to each treatment vial. The vials are capped and held for 24 hours in an environmental chamber at appropriate temperature, humidity and light/dark cycles. Evaluations are only made at 24 hours because dead larvae after 24 hours may be cannibalized by the remaining live ones. Vials are examined for percent mortality.

The subject of test [4] is Rhipicephalus sanguineus Nymphs. The test is described as follows: Activity in vivo against Rhipicephalus sanguineus nymphs on Mongolian gerbils. The conditions noted are these: topical, 0 h, pour on application day 0, tick number reduction vs placebo, Abbott's formula, read-out: efficacy (EC90). The protocol: On day 0, gerbils are treated with the test compound at a given dose by pour on application. On day +1 (+2), the animals are infested with nymphs of R. sanguineus. Ticks are left on the animals until full repletion. Seven days after infestation nymphs dropped off fully engorged are collected and counted. They are kept until molting to also evaluate growth regulating activity of the test compound. Efficacy in killing (and growth regulating) is expressed as a tick number (and molted tick number) reduction in comparison with a placebo treated group, using the Abbott's formula:
n=number of live ticks. T=treated group. Co=control/placebo group.

Test [5] relates to Lucilla Cuprina (Australian sheep blowfly). Description: Activity in vitro against Lucilla cuprina (Australian sheep blowfly), Assay A. The conditions noted are these: Lucilia cuprina, 96 h; at 32 ppm; eggs on agar-based medium, 4 days at 28° C. and 60% relative humidity; read-out: efficacy (EC80).
Test [6] has as its system Engorged Female Rhipicephalus microplus (Cattle Tick). Description: Activity in vitro against engorged female Rhipicephalus microplus (cattle tick), contact test. The note with it: 672 h, organophosphorous-resistant Ultimo strain, evaluation 28 days later on mortality, oviposition and hatched larvae, read-out: efficacy (EC80). The procedure, abridged: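 Contact test: wells pre-coated with compound serial dilutions, 10 engorged females of organophosphate-resistant Ultimo strain per well, triplicates. Incubated 28 °C, 80% RH; mortality, oviposition and larval hatch assessed after 28 days.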

Test [7] relates to Rhipicephalus sanguineus (Dog Tick). Description: Activity in vitro against Rhipicephalus sanguineus (dog tick), Assay A, contact test. The note with it: Rhipicephalus sanguineus, 168 h, at 100 ppm, adult ticks, 28° C. and 80% relative humidity for 7 days, read-out: efficacy (EC80).
In another test the test system is Lice (Polyplax serrata). Description: Activity in vivo against lice (Polyplax serrata) in mice (topical). The note with it: pour-on application, live lice on day +4 and +14, Henderson & Tilton formula, read-out: efficacy (EC90). The method, boiled down: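 Naturally infested mice get formulated compound once by pour-on on day 0. Live lice are counted under a binocular on days +4 and +14. Efficacy is calculated by Henderson & Tilton from pre- vs post-treatment counts on the same mouse, corrected against placebo (empty formulation) mice.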

Test [8] relates to Ctenocephalides Felis (Cat Flea). Description: Activity in vitro against Ctenocephalides felis (cat flea), Assay A. The note with it: Ctenocephalides felis; at 100 ppm; adult fleas fed on treated blood for 24 h; dead fleas counted; read-out: efficacy (EC80). How it is done: Activity In Vitro Against Ctenocephalides Felis (Cat Flea)—Assay A
A mixed adult population of fleas is placed in a suitably formatted 96-well plate allowing fleas to access and feed on treated blood via an artificial feeding system. Fleas are fed on treated blood for 24 h, after which the compound effect is recorded. Insecticidal activity is determined on the basis of the number of dead fleas recovered from the feeding system.

For the compound `CCOC(OCC)c1nc(C(C)NC(=O)c2cc(C(F)(F)F)cc(C(F)(F)F)c2)n(-c2ncccn2)n1` (centres unmarked) [Example 73, N-[1-[5-(Diethoxymethyl)-2-pyrimidin-2-yl-1,2,4-triazol-3-yl]ethyl]-3,5-bis(trifluoromethyl)benzamide], the pest or weed control at 20 ppm in [1] is greater than 50%. Also, in test [2], the pest or weed control at 10 ppm is greater than 50%.

Take `C#CCN(C(=O)c1cccc(C#N)c1)C(C)c1ncnn1-c1ncccn1` (centres unmarked) [Example 54, 3-Cyano-N-prop-2-ynyl-N-[1-(2-pyrimidin-2-yl-1,2,4-triazol-3-yl)ethyl]benzamide]: the pest or weed control at 20 ppm in test [1] is greater than 50%. Moreover, in test [2], the pest or weed control at 10 ppm was greater than 50%.

Turning to `CC(c1ncnn1-c1ncccn1)N(CC#N)C(=O)c1cc(C(F)(F)F)cc(C(F)(F)F)c1` (centres unmarked) [Example 56, N-(Cyanomethyl)-N-[1-(2-pyrimidin-2-yl-1,2,4-triazol-3-yl)ethyl]-3,5-bis(trifluoromethyl)benzamide], the pest or weed control at 10 ppm in test [2] and in test [3] was greater than 50% each time.

With `CC(c1ncnn1-c1ncccn1)N(C)C(=O)c1cc(C#N)cc(C(F)(F)F)c1` (centres unmarked) [Example 60, 3-Cyano-N-methyl-N-[1-(2-pyrimidin-2-yl-1,2,4-triazol-3-yl)ethyl]-5-(trifluoromethyl)benzamide], the pest or weed control at 20 ppm in test [1] is greater than 50%. Besides, the pest or weed control at 10 ppm in test [2] and in test [3] was greater than 50% each time.

On to `C[C@H](NC(=O)c1cc(C(F)(F)F)cc(C(F)(F)F)c1)c1ncnn1-c1ncc(F)cn1` [Example 69, N-[(1S)-1-[2-(5-Fluoropyrimidin-2-yl)-1,2,4-triazol-3-yl]ethyl]-3,5-bis(trifluoromethyl)benzamide], for which the pest or weed control at 20 ppm in test [1] was greater than 50%. Moreover, the pest or weed control at 10 ppm in test [2] and in test [3] was greater than 50% each time.

Take `C[C@H](NC(=O)c1cccc(C#N)c1)c1ncnn1-c1ncc(F)cn1` [Example 68, 3-Cyano-N-[(1S)-1-[2-(5-fluoropyrimidin-2-yl)-1,2,4-triazol-3-yl]ethyl]benzamide]: the pest or weed control at 20 ppm in test [1] was greater than 50%. Also, the pest or weed control at 10 ppm in [2] and in test [3] was greater than 50% throughout.

`C[C@H](NC(=O)c1cc(C(F)(F)F)cc(C(F)(F)F)c1)c1ncnn1-c1ncccn1` [Example 66, N-[(1S)-1-(2-Pyrimidin-2-yl-1,2,4-triazol-3-yl)ethyl]-3,5-bis(trifluoromethyl)benzamide]: the pest or weed control at 10 ppm in [2] and in test [3] was greater than 50% in each case.

On to `CC(c1ncnn1-c1ncccn1)N(CC1CC1)C(=O)c1cc(Br)cc(C(F)(F)F)c1` (centres unmarked) [Example 62, 3-Bromo-N-(cyclopropylmethyl)-N-[1-(2-pyrimidin-2-yl-1,2,4-triazol-3-yl)ethyl]-5-(trifluoromethyl)benzamide], for which the pest or weed control at 20 ppm in [1] is greater than 50%. Moreover, the pest or weed control at 10 ppm in [3] was greater than 50%.

As to `CC(c1ncnn1-c1ncccn1)N(C)C(=O)c1cc(C(N)=S)cc(C(F)(F)F)c1` (centres unmarked) [Example 72, 3-Carbamothioyl-N-methyl-N-[1-(2-pyrimidin-2-yl-1,2,4-triazol-3-yl)ethyl]-5-(trifluoromethyl)benzamide], the pest or weed control at 10 ppm in test [2] and in [3] was greater than 50% in each case.

`CC(c1ncnn1-c1ncccn1)N(C)C(=O)c1cccc(C#N)c1` (centres unmarked) [Example 55, 3-Cyano-N-methyl-N-[1-(2-pyrimidin-2-yl-1,2,4-triazol-3-yl)ethyl]benzamide]: in test [1], the pest or weed control at 20 ppm is greater than 50%. For the same compound, in test [2], the pest or weed control at 10 ppm is greater than 50%.

In the case of `COC(=O)c1nc(C(C)NC(=O)c2cc(C(F)(F)F)cc(C(F)(F)F)c2)n(-c2ncccn2)n1` (centres unmarked) [Example 74, Methyl 5-[1-[[3,5-bis(trifluoromethyl)benzoyl]amino]ethyl]-1-pyrimidin-2-yl-1,2,4-triazole-3-carboxylate], the pest or weed control at 20 ppm in test [1] was greater than 50%.

On to `CC(c1ncnn1-c1ncccn1)N(CC1CC1)C(=O)c1cc(C(F)(F)F)nc(C(F)(F)F)c1` (centres unmarked) [Example 51, N-(Cyclopropylmethyl)-N-[1-(2-pyrimidin-2-yl-1,2,4-triazol-3-yl)ethyl]-2,6-bis(trifluoromethyl)pyridine-4-carboxamide], for which the pest or weed control at 10 ppm in test [2] and in test [3] was greater than 50% in each case.

Turning to `CC(c1ncnn1-c1ncccn1)N(CCF)C(=O)c1cc(C(F)(F)F)cc(C(F)(F)F)c1` (centres unmarked) [Example 19, N-(2-Fluoroethyl)-N-[1-(2-pyrimidin-2-yl-1,2,4-triazol-3-yl]ethyl]-3,5-bis(trifluoromethyl)benzamide], the inhibition in vivo at 32 mg/kg (in test [4]; in the test with Lice (Polyplax serrata)) was greater than 90% in each case. In [5], the pest or weed control at 32 ppm is greater than 80%. Further, the pest or weed control at 200 ppm in test [6] is greater than 80%. Also, the pest or weed control at 100 ppm in [7] and in [8] was greater than 80% throughout.

As to `CCN(C(=O)c1cc(C(F)(F)F)cc(C(F)(F)F)c1)C(C)c1ncnn1-c1ncccn1` (centres unmarked) [Example 53, N-Ethyl-N-[1-(2-pyrimidin-2-yl-1,2,4-triazol-3-yl)ethyl]-3,5-bis(trifluoromethyl)benzamide], the pest or weed control at 10 ppm in [2] and in [3] was greater than 50% each time.

Take `COc1cnc(-n2ncnc2C(C)N(CC2CC2)C(=O)c2cc(C(F)(F)F)cc(C(F)(F)F)c2)nc1` (centres unmarked) [Example 39, N-(Cyclopropylmethyl)-N-[1-[2-(5-methoxypyrimidin-2-yl)-1,2,4-triazol-3-yl]ethyl]-3,5-bis(trifluoromethyl)benzamide]: the inhibition in vivo at 32 mg/kg (in test [4]; in the test on Lice (Polyplax serrata)) was greater than 90% in each case. Also, the pest or weed control at 32 ppm in [5] was greater than 80%. For the same compound, the pest or weed control at 200 ppm in [6] is greater than 80%. For the same compound, the pest or weed control at 100 ppm in [7] and in test [8] was greater than 80% each time.

As for `CC(NC(=O)c1cc(C#N)cc(C(F)(F)F)c1)c1ncnn1-c1ncccn1` (centres unmarked) [Example 57, 3-Cyano-N-[1-(2-pyrimidin-2-yl-1,2,4-triazol-3-yl)ethyl]-5-(trifluoromethyl)benzamide], the pest or weed control at 10 ppm in test [2] and in test [3] was greater than 50% each time.

On to `CC(c1ncnn1-c1ccccn1)N(CC1CC1)C(=O)c1cc(C(F)(F)F)cc(C(F)(F)F)c1` (centres unmarked) [Example 1, N-(Cyclopropylmethyl)-N-[1-[2-(2-pyridyl)-1,24-triazol-3-yl]ethyl]-3,5-bis(trifluoromethyl)benzamide], for which the inhibition in vivo at 32 mg/kg (in test [4]; with Lice (Polyplax serrata)) was greater than 90% throughout. Also, in test [5], the pest or weed control at 32 ppm was greater than 80%. In test [6], the pest or weed control at 200 ppm was greater than 80%. Besides, the pest or weed control at 100 ppm in test [7] and in [8] was greater than 80% throughout.

As for `C[C@@H](c1ncnn1-c1ncc(F)cn1)N(CC1CC1)C(=O)c1cc(C(F)(F)F)cc(C(F)(F)F)c1` [Example 64, N-(Cyclopropylmethyl)-N-[(1S)-1-[2-(5-fluoropyrimidin-2-yl)-1,2,4-triazol-3-yl]ethyl]-3,5-bis(trifluoromethyl)benzamide], the pest or weed control at 10 ppm in [2] and in test [3] was greater than 50% in each case.
